Results published in a melting point compilation (Tetko et al.; mined from patent text by program, amines drawn as free bases though some values may be those of a salt).

| SMILES | melting point |
| --- | --- |
| CC(NC(Nc1cc(C(F)(F)F)cc(C(F)(F)F)c1)=C(C#N)S(=O)(=O)c1ccc(Cl)cc1)C(C)(C)C (stereo not given) | 156 to 158 °C |
| CCCCc1c(CNC(=O)OC(C)(C)C)c(CC(C)C)nc2ccc(O)cc12 | 198 to 200 °C |
| O=C1CCC(O)=C1Cc1cccc(CCNS(=O)(=O)c2ccc(Cl)cc2)c1 | 176 to 178 °C |
| CC(C)(C)C(=O)Nc1ccc(Cl)cn1 | 51.4 to 53.4 °C |
| CNC(=NC#N)NCCCCSc1nccc(NC(N)=NCC(F)(F)F)n1 | 179 to 180 °C |
| CSC1=N[C@@H](c2ccccc2)[C@H](c2ccccc2)N1 (relative stereo) | 132 to 134 °C |
| CNC(=O)c1cccc(Nc2nc(Nc3ccc4c(c3)CCCC(=O)N4C)ncc2Cl)c1 | 215 to 217 °C |
| Cn1cc(C(=O)NC2CCCNC(=O)C2)nn1 (stereo not given) | 259 to 260 °C |
| C[C@@H](n1ncn(-c2ccc(OCC(F)(F)C(F)F)cc2)c1=O)[C@](O)(C=O)c1ccc(F)cc1F | 134 to 136 °C |
| COc1ccc(C(=O)O)c(O)c1O | 234 °C |
| CCOC(=O)CNC(=S)NC(Cc1ccc(OC)cc1)=Nc1ccccc1 | 120 to 121 °C |
| CC1=C(c2ccncc2)SC(c2ccc(O)cc2)C(=O)N1 (stereo not given) | 198 to 200 °C |
| CCC(C)(C)NC(=O)NC(C)C#N (stereo not given) | 129 to 130 °C |
| CC(C)Nc1cccnc1N1CCN(C(=O)c2ccc(C(=O)NCCCN3CCOCC3)cc2)CC1 | 103 °C |
| CC1(C(=O)P(=O)(c2ccccc2)c2ccccc2)CCCCC1 | 80 °C |
| Cc1ccc2oc(-c3ccccc3-c3nnn[nH]3)c(Br)c2c1 | 167 to 168 °C |
| NC1CCN(c2nc3c(cc2F)c(=O)c(C(=O)O)cn3C2CC2)C1 (stereo not given) | 266 to 267 °C |
| CNC(=O)CC1CN=C(c2cc3cc(Oc4ccc(CS(C)(=O)=O)nc4)cc(OC4CCOCC4)c3[nH]2)S1 (stereo not given) | 157 to 158 °C |
| COc1cn(-c2ccncc2)nc(-c2ccnn2-c2ccccc2)c1=O | 195 to 197 °C |
| CCOC(=O)CCCCn1c(=O)[nH]c2ccc([N+](=O)[O-])cc2c1=O | 173 to 174 °C |
| O=c1c2ccc(O)cc2oc2oc3cc(O)ccc3c12 | > 300 °C |
| O=S=NNc1cccc(C(F)(F)F)c1 | 100 °C |
| O=c1[nH]c2c(Cc3nnn[nH]3)c3ccccc3n2c2ccccc12 | 262 to 265 °C |
| O=C(O)Cc1ccc(SCCNC(=O)C2Cc3ccccc3N2S(=O)(=O)c2ccc(-c3ccccc3C(F)(F)F)cc2)c(Cl)c1 (stereo not given) | 86 °C |
| Nc1ccnc2c(F)cccc12 | 184 to 186 °C |

| SMILES | melting point |
| --- | --- |
| O=[N+]([O-])c1cnn2c1-c1ccccc1NC2c1ccccc1 (stereo not given) | 157 to 158 °C |
| CCCCCc1c(C(C)C)nc(C(C)C)c(CO)c1-c1ccc(F)cc1 | 100 to 101 °C |
| CCOc1ccc2nc(Cl)c(C=NOC)cc2c1 | 142 to 144 °C |
| COC(=O)C1=C(C)NC(C)=C(P2(=O)OC(C)CC(C)O2)C1c1cccc([N+](=O)[O-])c1 (stereo not given) | 225 to 226 °C |
| CCOC(=O)c1ccc2c(C=C[N+](=O)[O-])c[nH]c2c1 | 241 °C |
| O=C1CC2CC(Oc3nc4ccccc4[nH]3)CC2C1 (stereo not given) | 208 to 209 °C |
| O=C(O)C1CSC(c2cc(Cl)ccc2OCCO[N+](=O)[O-])N1 (stereo not given) | 134 to 135 °C |
| CC(C)c1ccccc1N1/C(=N\N=C/c2ccc(-c3ncn(-c4ccc(OC(F)(F)F)cc4)n3)cc2)SCC1(O)c1ccccc1C(F)(F)F (stereo not given) | 115 to 118 °C |
| O=C(O)COc1ccc(-c2c3ccccc3c(Br)c3sc4ccccc4c23)cc1 | 198 to 200 °C |
| CC1(C)C=NC(C(NC(c2ccccc2)(c2ccccc2)c2ccccc2)C(=O)O)S1 (stereo not given) | 180 to 182 °C |
| Cc1cc(-c2cc(N)ccc2F)cc(C)n1 | 142 to 145 °C |
| CC(=O)Oc1c(C)c(C)c2c(c1C)CCC(C)(COc1ccc(N)cc1)O2 (stereo not given) | 138 to 140 °C |
| Cc1cc(S(=O)(=O)NC(=O)c2cn3cc(C(F)(F)F)cc(Cl)c3n2)c(C)cc1C#N | 228 to 229 °C |
| O=[N+]([O-])c1cnn(-c2c(Cl)cc(Cl)cc2Cl)c1O | 106 to 115 °C |
| COc1ccc(-c2cccc3c2N(S(=O)(=O)c2ccc(OC)cc2)CC3)cc1 | 176 to 177 °C |
| C#Cc1ccc(CCNC(=O)c2cc(Cl)ccc2OC)cc1S(=O)(=O)NC(=S)NC | 224 to 225 °C |
| CC(C)(O)c1ccc(C(Cc2ccc(F)cc2)C(=O)Nc2nc3ccccc3o2)cc1 (stereo not given) | 87 to 90 °C |
| C=CCOc1ccc2c(c1)c(C)c(CCC(=O)O)n2Cc1ccc(Cl)cc1 | 131 °C |
| CCCCCCCCCCCCC(C(=O)O)S(=O)(=O)c1ccc(OC)cc1 (stereo not given) | 82 °C |
| COc1ccc2oc(=O)cc(Oc3c(Cl)cccc3Cl)c2c1 | 170 to 171 °C |
| Fc1c2c(nc3cc(Cl)ccc13)CCCC2 | 68 to 70 °C |
| COc1cc(CC(=O)Nc2ccc(C3CN(C(C)=O)CC3C(=O)O)cc2)ccc1NC(=O)Nc1ccccc1C (stereo not given) | 242 °C |
| COC=C(C(=O)OC)c1ccc(OC(C)=O)cc1 | 69 to 70 °C |
| COC(=O)c1cc2cc(OC)ccc2cc1O | 129 to 131 °C |
| CN(C)C(=O)COC(=O)c1ccc(Cl)cc1OCC(=O)N(C)C | 140 to 141 °C |
